Data: ChEMBL document CHEMBL1143113, “Design and synthesis of 4-[(s-triazin-2-ylamino)methyl]-N-(2-aminophenyl)-benzamides and their analogues as a novel class of histone deacetylase inhibitors” (Bioorg Med Chem Lett, 2008)
pEC50, pIC50: −log10 of the molar value. Activity calls are given as the source filed them. The calls are words filed in the database; no cut-off is given here.

How the values were obtained:
Histone deacetylase 1 [1] = molecular target: T1, Histone deacetylase 1 (Homo sapiens, UniProt Q13547); experiment: Inhibition of human recombinant HDAC1
T1 sequence (Q13547 whole entry): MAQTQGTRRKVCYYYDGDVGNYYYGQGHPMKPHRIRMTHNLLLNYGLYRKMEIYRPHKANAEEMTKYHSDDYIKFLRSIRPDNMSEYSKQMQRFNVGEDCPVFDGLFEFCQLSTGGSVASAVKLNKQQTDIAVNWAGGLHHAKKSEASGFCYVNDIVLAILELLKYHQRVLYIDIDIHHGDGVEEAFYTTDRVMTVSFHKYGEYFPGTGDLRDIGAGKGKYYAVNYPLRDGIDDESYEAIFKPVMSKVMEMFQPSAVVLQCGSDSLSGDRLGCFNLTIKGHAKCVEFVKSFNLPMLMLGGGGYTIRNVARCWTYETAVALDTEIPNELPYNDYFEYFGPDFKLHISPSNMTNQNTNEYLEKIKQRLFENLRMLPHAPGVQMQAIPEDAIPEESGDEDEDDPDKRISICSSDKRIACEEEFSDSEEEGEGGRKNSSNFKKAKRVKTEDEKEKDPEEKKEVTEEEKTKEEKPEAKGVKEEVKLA

HCT-116 [2] = experiment: Cytotoxicity against human HCT116 cells by MTT assay; format: functional, cell-based
[3] = Induction of histone H4 acetylation in human […]; format: functional, cell-based
HMEC = experiment: Cytotoxicity against human HMEC cells by MTT assay; format: cell-based
Histone deacetylase 1 [4] = molecular target: T1, Histone deacetylase 1; experiment: Activity against HDAC1
[5] = molecular target: Histone deacetylase 2 (Homo sapiens) (UniProt Q92769); experiment: Activity against HDAC2
Sequence of Histone deacetylase 2 (Homo sapiens) (Q92769 whole entry): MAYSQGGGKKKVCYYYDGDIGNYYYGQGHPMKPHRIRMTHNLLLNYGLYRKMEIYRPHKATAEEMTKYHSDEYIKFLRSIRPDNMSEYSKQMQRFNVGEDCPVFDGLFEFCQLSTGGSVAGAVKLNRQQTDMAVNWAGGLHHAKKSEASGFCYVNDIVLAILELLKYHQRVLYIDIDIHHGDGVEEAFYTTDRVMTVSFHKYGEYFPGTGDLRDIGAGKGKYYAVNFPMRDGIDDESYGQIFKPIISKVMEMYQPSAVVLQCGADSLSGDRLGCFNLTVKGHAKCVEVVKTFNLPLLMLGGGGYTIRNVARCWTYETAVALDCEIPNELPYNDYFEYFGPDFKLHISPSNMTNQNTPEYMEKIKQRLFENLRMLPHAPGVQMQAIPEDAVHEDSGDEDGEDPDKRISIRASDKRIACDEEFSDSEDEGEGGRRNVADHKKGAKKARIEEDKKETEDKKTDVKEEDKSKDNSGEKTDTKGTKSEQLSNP

[6] = molecular target: Histone deacetylase 3 (Homo sapiens) (UniProt O15379); experiment: Activity against HDAC3
Sequence of Histone deacetylase 3 (Homo sapiens) (O15379 whole entry): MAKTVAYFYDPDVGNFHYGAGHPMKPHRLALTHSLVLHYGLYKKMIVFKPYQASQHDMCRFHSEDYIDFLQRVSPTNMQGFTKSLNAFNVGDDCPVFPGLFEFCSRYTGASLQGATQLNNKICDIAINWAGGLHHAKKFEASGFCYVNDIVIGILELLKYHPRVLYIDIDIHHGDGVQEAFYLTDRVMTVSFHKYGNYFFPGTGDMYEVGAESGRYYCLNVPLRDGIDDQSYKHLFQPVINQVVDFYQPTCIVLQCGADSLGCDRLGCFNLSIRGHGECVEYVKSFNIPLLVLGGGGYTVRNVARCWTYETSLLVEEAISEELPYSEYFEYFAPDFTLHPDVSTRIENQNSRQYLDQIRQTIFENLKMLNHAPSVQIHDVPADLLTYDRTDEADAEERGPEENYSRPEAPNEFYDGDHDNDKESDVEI

[7] = molecular target: Histone deacetylase 4 (Homo sapiens) (UniProt P56524); experiment: Activity against HDAC4
Sequence of Histone deacetylase 4 (Homo sapiens) (P56524 whole entry): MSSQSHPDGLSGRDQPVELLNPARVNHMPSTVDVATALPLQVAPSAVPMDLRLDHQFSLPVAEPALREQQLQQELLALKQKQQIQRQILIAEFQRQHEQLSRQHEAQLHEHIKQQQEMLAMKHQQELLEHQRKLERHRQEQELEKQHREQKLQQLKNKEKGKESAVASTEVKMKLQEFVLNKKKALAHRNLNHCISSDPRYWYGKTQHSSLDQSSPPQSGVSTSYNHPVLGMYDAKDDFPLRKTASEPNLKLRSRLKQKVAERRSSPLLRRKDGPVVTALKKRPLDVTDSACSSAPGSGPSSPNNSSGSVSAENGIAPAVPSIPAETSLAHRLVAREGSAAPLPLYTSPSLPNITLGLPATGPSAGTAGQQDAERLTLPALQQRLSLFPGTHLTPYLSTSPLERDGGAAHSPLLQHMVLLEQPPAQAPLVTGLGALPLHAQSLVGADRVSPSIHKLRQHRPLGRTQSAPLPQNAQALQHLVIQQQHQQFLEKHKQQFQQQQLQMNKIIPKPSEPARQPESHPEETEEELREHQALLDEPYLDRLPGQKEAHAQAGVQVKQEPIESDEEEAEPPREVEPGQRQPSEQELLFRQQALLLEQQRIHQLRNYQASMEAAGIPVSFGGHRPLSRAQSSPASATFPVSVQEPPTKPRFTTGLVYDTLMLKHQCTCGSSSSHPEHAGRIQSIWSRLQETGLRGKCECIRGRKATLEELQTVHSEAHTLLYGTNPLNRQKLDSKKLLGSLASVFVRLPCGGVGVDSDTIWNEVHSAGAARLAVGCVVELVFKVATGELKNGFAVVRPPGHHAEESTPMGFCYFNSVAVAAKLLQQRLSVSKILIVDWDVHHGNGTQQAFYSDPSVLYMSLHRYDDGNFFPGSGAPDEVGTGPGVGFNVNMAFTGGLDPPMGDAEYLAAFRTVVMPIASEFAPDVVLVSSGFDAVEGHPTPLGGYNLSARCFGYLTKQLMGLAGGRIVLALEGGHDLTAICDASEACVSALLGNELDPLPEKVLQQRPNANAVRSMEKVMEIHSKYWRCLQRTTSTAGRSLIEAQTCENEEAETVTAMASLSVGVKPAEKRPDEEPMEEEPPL

[8] = molecular target: Histone deacetylase 5 (Homo sapiens) (UniProt Q9UQL6); experiment: Activity against HDAC5
Sequence of Histone deacetylase 5 (Homo sapiens) (Q9UQL6 whole entry): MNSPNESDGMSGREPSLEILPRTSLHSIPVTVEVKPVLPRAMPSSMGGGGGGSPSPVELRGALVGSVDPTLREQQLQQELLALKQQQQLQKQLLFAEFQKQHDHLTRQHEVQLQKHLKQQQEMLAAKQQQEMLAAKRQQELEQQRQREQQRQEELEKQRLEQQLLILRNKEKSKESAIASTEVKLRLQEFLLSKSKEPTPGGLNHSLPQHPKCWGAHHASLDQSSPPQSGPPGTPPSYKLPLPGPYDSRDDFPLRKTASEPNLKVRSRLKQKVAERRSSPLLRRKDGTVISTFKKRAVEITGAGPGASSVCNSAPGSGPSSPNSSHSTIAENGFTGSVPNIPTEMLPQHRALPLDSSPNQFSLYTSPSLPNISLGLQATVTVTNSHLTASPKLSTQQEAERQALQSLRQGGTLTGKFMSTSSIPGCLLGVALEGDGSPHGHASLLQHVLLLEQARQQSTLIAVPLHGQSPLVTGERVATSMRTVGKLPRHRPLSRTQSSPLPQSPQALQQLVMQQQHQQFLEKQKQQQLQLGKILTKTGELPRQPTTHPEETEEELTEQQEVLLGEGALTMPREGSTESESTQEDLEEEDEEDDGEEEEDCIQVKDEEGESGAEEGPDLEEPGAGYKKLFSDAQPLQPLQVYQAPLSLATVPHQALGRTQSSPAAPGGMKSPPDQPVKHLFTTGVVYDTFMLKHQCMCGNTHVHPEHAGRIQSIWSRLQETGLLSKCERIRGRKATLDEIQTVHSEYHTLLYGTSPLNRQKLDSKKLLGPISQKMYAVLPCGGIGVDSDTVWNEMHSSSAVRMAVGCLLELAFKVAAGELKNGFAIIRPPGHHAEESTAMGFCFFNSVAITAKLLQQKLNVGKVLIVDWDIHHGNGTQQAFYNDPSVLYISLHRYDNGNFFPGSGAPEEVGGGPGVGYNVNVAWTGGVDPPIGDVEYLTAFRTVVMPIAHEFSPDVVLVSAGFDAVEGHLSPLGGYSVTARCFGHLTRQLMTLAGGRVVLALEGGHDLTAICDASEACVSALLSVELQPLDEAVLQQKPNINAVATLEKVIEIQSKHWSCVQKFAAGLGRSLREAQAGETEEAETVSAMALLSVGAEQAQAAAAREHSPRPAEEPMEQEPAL

[9] = molecular target: T2, Protein deacetylase HDAC6 (Homo sapiens) (UniProt Q9UBN7); experiment: Activity against HDAC6
T2 sequence (whole entry): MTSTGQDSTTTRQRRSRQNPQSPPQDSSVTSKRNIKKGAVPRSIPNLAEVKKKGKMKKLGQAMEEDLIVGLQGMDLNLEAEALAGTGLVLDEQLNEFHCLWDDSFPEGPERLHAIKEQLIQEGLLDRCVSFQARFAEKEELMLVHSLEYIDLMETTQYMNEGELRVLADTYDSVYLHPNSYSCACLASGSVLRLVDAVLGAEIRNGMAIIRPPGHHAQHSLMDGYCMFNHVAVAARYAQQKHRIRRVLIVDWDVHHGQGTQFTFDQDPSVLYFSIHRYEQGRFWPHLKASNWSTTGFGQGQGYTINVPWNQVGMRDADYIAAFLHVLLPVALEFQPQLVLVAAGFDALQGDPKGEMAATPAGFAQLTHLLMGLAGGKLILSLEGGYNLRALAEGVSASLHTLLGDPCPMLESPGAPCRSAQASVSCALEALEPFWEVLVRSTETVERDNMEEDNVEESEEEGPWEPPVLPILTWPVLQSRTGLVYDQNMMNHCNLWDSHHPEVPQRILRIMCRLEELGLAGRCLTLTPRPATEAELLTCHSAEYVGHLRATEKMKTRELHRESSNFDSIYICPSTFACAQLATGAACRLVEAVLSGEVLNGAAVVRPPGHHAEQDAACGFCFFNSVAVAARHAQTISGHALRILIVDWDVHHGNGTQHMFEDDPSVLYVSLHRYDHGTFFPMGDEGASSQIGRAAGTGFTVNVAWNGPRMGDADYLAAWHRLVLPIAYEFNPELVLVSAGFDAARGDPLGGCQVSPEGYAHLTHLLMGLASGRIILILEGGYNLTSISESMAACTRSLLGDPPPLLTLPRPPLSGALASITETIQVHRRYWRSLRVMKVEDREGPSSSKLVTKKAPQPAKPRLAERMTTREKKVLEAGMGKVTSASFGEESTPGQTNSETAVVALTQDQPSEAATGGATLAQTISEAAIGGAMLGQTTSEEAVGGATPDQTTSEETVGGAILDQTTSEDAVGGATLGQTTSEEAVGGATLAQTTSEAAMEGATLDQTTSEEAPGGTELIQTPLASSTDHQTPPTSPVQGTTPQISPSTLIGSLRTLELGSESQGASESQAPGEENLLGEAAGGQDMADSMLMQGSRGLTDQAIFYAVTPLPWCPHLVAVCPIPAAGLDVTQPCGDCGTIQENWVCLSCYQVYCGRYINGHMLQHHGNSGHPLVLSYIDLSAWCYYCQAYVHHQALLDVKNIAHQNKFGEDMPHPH

[10] = molecular target: T3, Histone deacetylase 7 (Homo sapiens) (UniProt Q8WUI4); experiment: Activity against HDAC7
T3 sequence (whole entry): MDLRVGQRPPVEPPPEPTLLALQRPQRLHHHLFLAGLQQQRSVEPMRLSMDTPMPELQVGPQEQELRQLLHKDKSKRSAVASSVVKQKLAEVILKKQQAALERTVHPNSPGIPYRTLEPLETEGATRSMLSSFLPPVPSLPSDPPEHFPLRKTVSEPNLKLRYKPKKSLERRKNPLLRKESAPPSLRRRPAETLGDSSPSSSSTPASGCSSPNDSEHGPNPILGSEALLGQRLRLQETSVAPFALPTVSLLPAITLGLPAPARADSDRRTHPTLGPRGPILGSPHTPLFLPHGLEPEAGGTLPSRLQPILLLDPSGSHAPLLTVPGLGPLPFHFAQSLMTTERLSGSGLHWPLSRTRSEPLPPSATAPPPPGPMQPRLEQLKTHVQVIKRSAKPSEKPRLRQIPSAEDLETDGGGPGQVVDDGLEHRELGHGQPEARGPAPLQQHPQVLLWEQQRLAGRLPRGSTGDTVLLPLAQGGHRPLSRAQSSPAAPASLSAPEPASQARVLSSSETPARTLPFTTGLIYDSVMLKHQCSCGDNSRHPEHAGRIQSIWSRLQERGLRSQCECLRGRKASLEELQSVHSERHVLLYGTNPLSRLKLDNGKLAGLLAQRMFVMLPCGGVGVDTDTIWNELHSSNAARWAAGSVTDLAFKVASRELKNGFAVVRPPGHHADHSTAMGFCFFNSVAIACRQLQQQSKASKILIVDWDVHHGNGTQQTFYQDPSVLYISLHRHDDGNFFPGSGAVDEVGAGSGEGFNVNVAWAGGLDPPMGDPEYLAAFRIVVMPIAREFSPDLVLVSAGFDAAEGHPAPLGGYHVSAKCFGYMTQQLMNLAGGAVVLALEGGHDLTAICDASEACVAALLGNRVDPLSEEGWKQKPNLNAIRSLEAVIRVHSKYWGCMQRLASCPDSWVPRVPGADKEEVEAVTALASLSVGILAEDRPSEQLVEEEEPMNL

HCT-116 [11] = experiment: Antitumor activity in human HCT116 tumor bearing mouse at 40 mg/kg/day, ip after 2 weeks; format: functional; details: HCT-116, ip, 336 h, route intraperitoneal
HCT-116 [12] = experiment: Antitumor activity in human HCT116 tumor bearing mouse at 20 mg/kg/day, ip after 2 weeks; format: functional; details: HCT-116, ip, 336 h, route intraperitoneal

Row | SMILES | pIC50 (Histone deacetylase 1 [1]) | pEC50 [3] | pIC50 (HCT-116 [2]) | pIC50 (HMEC) | also measured
1 | Nc1nc(NCc2ccc(C(=O)Nc3ccccc3N)cc2)c2nc[nH]c2n1 | 6.70 |  | 5.00 |  | 
2 | Nc1nc(NCc2ccc(C(=O)Nc3ccccc3N)cc2)nc(N2CCOCC2)n1 | 6.70 | 5.30 | 6.10 | < 4.40 | Activity (Histone deacetylase 1 [4]): Active; Activity [5]: Active; Activity [6]: Active; Activity [7]: inactive; Activity [8]: inactive; Activity [9]: inactive; Activity [10]: inactive; inhibition in vivo at 40 mg/kg/day (HCT-116 [11]): 50%
3 | Cc1ccc(C#N)c(OCc2ccc(C(=O)Nc3ccccc3N)cc2)n1 | 6.52 |  | 6.30 |  | 
4 | Nc1ccccc1NC(=O)c1ccc(CSc2ccccn2)cc1 | 6.52 |  | 6.00 |  | 
5 | Nc1ccccc1NC(=O)c1ccc(CNc2ncccn2)cc1 | 6.15 |  | 5.70 |  | 
6 | CCCCn1cnc2c(NCc3ccc(C(=O)Nc4ccccc4N)cc3)nc(N)nc21 | 6.52 |  | 5.70 |  | 
7 | Nc1nc(NCc2ccc(C(=O)Nc3ccccc3N)cc2)nc(NC2Cc3ccccc3C2)n1 | 6.70 | 6.00 | 6.22 | 5.10 | Activity (Histone deacetylase 1 [4]): Active; Activity [5]: Active; Activity [6]: Active; Activity [7]: inactive; Activity [8]: inactive; Activity [9]: inactive; Activity [10]: inactive
8 | COc1cc(NCc2ccc(C(=O)Nc3ccccc3N)cc2)ncn1 | 6.70 |  | 6.00 |  | 
9 | Nc1nc(NCc2ccc(C(=O)Nc3ccccc3N)cc2)nc(NC2CCCC2)n1 | 6.70 | 6.10 | 6.15 | 4.96 | Activity (Histone deacetylase 1 [4]): Active; Activity [5]: Active; Activity [6]: Active; Activity [7]: inactive; Activity [8]: inactive; Activity [9]: inactive; Activity [10]: inactive; inhibition in vivo at 40 mg/kg/day (HCT-116 [11]): 50%
10 | Cc1cc(C)nc(NCc2ccc(C(=O)Nc3ccccc3N)cc2)n1 | 6.52 |  | 6.00 |  | 
11 | Nc1nc(NCc2ccc(C(=O)Nc3ccccc3N)cc2)nc(N2CCc3ccccc32)n1 | 7.00 | 6.00 | 6.10 | 5.00 | 

More lines, in order of rising pIC50 (Histone deacetylase 1 [1]), values ahead:

Row | pIC50 (Histone deacetylase 1 [1]) | pEC50 [3] | SMILES | pIC50 (HCT-116 [2]) | pIC50 (HMEC) | also measured
12 | 7.00 | 6.00 | Nc1nc(NCCc2ccccc2)nc(NCc2ccc(C(=O)Nc3ccccc3N)cc2)n1 | 6.52 | 4.68 | 
13 | 7.00 |  | COc1cccc(NCc2ccc(C(=O)Nc3ccccc3N)cc2)n1 | 6.10 |  | 
14 | 7.00 |  | Nc1ccccc1NC(=O)c1ccc(CNc2cccc(F)n2)cc1 | 6.00 |  | 
15 | 7.00 |  | COc1ccc(-c2cc(Cl)nc(NCc3ccc(C(=O)Nc4ccccc4N)cc3)n2)cc1OC | 6.40 |  | 
16 | 7.00 |  | COc1cc(OC)nc(NCc2ccc(C(=O)Nc3ccccc3N)cc2)n1 | 6.22 |  | 
17 | 7.00 |  | COc1ccc(NCc2ccc(C(=O)Nc3ccccc3N)cc2)cn1 | 6.15 |  | 
18 | 7.10 | 6.00 | Nc1ccccc1NC(=O)c1ccc(CNc2nc(NC3Cc4ccccc4C3)nc(N3CCOCC3)n2)cc1 | 5.70 | < 4.30 | 
19 | 7.15 | 6.00 | Nc1ccccc1NC(=O)c1ccc(CNc2nc(NCCN3CCOCC3)nc(NC3Cc4ccccc4C3)n2)cc1 | 6.22 | 4.80 | Activity (Histone deacetylase 1 [4]): Active; Activity [5]: Active; Activity [6]: Active; Activity [7]: inactive; Activity [8]: inactive; Activity [9]: inactive; Activity [10]: inactive; inhibition in vivo at 20 mg/kg/day (HCT-116 [12]): 49%
20 | 7.30 |  | COc1ccc(-c2ccnc(NCc3ccc(C(=O)Nc4ccccc4N)cc3)n2)cc1OC | 7.00 |  | 
21 | 7.30 |  | CCCCn1cnc2c(NCc3ccc(C(=O)Nc4ccccc4N)cc3)nc(Cl)nc21 | 7.00 |  | 
22 | 7.40 | 6.00 | Nc1nc(NCc2ccc(C(=O)Nc3ccccc3N)cc2)nc(N2Cc3ccccc3C2)n1 | 6.30 | < 4.30 | 
23 | 7.52 | 6.00 | Nc1ccccc1NC(=O)c1ccc(CNc2nc(NC3CC3)nc(NC3Cc4ccccc4C3)n2)cc1 | 6.00 | 4.74 | 
